Species on record: Rattus norvegicus
Assay: Open TG-GATES - Regimen: Daily Repeat
Type: toxicity, organism-based, Sprague-Dawley
Set-up: regimen Daily Repeat, gender Male, age 6 weeks
Conditions: in vivo, po, route gavage; for APTT / Bas / Eos / Fbg / Hb / Ht / Lym / MCH / MCHC / MCV / Mono / Neu / Plat / RBC / Ret / WBC: tissue Blood; for KIDNEY_L / KIDNEY_R / KIDNEY_TOTAL: tissue Kidney; for ALP / ALT / AST / BUN / CRE / DBIL / GLC / IP / K / LDH / Na / PL / RALB / TBIL / TC / TG / TP / gamma-GTP: tissue Plasma
[1] = 30 mg/kg, 72 h, dose level Middle, time 3 day
[2] = 30 mg/kg, […], dose level Middle, time 7 day
[3] = 30 mg/kg, […], dose level Middle, time 14 day
[4] = 30 mg/kg, […], dose level Middle, time 28 day
[5] = 100 mg/kg, 72 h, dose level High, time 3 day
[6] = 100 mg/kg, […], dose level High, time 7 day
[7] = 100 mg/kg, […], dose level High, time 14 day
[8] = 100 mg/kg, […], dose level High, time 28 day

CN(C)CCC=C1c2ccccc2COc2ccccc21 [DOXEPIN]
TERMINAL_BW [1]: 221 g
APTT [1]: 16.8 s
Bas [1]: 0%
Eos [1]: 0.8%
Fbg [1]: 336.2 mg/dL
Hb [1]: 13 g/dL
Ht [1]: 37.8%
Lym [1]: 73.4%
MCH [1]: 21.6 pg
MCHC [1]: 34.4%
MCV [1]: 62.9 fL
Mono [1]: 2.8%
Neu [1]: 22.6%
Plat [1]: 113.6 x10_4/uL
RBC [1]: 600.6 x10_4/ul
Ret [1]: 6.9%
WBC [1]: 66.4 x10_2/uL
KIDNEY_L [1]: 1 g
KIDNEY_R [1]: 1 g
KIDNEY_TOTAL [1]: 2 g
ALP [1]: 1714.2 IU/L
ALT [1]: 50 IU/L
AST [1]: 75 IU/L
BUN [1]: 15 mg/dL
CRE [1]: 0.2 mg/dL
DBIL [1]: 0.018 mg/dL
GLC [1]: 193.6 mg/dL
IP [1]: 7.3 mg/dL
K [1]: 4.5 meq/L
LDH [1]: 94 IU/L
Na [1]: 142.2 meq/L
PL [1]: 147.6 mg/dL
RALB [1]: 2.7 g/dL
TBIL [1]: 0.032 mg/dL
TC [1]: 81.2 mg/dL
TG [1]: 97 mg/dL
TP [1]: 5.9 g/dL
gamma-GTP [1]: 1.2 IU/L
TERMINAL_BW [2]: 252.6 g
TERMINAL_BW [3]: 310 g
TERMINAL_BW [4]: 397.6 g
APTT [2]: 18.3 s
Bas [2]: 0%
Eos [2]: 1%
Fbg [2]: 293.4 mg/dL
Hb [2]: 13.4 g/dL
Ht [2]: 38.2%
Lym [2]: 81.4%
MCH [2]: 21.5 pg
MCHC [2]: 35.1%
MCV [2]: 61.2 fL
Mono [2]: 2.6%
Neu [2]: 14.4%
Plat [2]: 115.8 x10_4/uL
RBC [2]: 624.8 x10_4/ul
Ret [2]: 5.8%
WBC [2]: 90.6 x10_2/uL
APTT [3]: 16.2 s
Bas [3]: 0%
Eos [3]: 1%
Fbg [3]: 310.4 mg/dL
Hb [3]: 14 g/dL
Ht [3]: 40.7%
Lym [3]: 77.2%
MCH [3]: 20.9 pg
MCHC [3]: 34.5%
MCV [3]: 60.6 fL
Mono [3]: 2.4%
Neu [3]: 18.8%
Plat [3]: 101.5 x10_4/uL
RBC [3]: 671.4 x10_4/ul
Ret [3]: 4.6%
WBC [3]: 80.3 x10_2/uL
APTT [4]: 18 s
Bas [4]: 0%
Eos [4]: 1.4%
Fbg [4]: 282 mg/dL
Hb [4]: 14.9 g/dL
Ht [4]: 42%
Lym [4]: 79%
MCH [4]: 19.7 pg
MCHC [4]: 35.4%
MCV [4]: 55.8 fL
Mono [4]: 2.6%
Neu [4]: 16.4%
Plat [4]: 112.2 x10_4/uL
RBC [4]: 754.2 x10_4/ul
Ret [4]: 2.4%
WBC [4]: 93.4 x10_2/uL
KIDNEY_L [2]: 1 g
KIDNEY_R [2]: 1 g
KIDNEY_TOTAL [2]: 2.1 g
KIDNEY_L [3]: 1.2 g
KIDNEY_R [3]: 1.2 g
KIDNEY_TOTAL [3]: 2.4 g
KIDNEY_L [4]: 1.4 g
KIDNEY_R [4]: 1.3 g
KIDNEY_TOTAL [4]: 2.7 g
ALP [2]: 1770.4 IU/L
ALT [2]: 48 IU/L
AST [2]: 72.6 IU/L
BUN [2]: 17.4 mg/dL
CRE [2]: 0.2 mg/dL
DBIL [2]: 0.018 mg/dL
GLC [2]: 191.2 mg/dL
IP [2]: 7.2 mg/dL
K [2]: 4.3 meq/L
LDH [2]: 76.2 IU/L
Na [2]: 142 meq/L
PL [2]: 145.4 mg/dL
RALB [2]: 2.7 g/dL
TBIL [2]: 0.034 mg/dL
TC [2]: 75.8 mg/dL
TG [2]: 106.4 mg/dL
TP [2]: 5.7 g/dL
gamma-GTP [2]: 1.4 IU/L
ALP [3]: 1433.6 IU/L
ALT [3]: 42.8 IU/L
AST [3]: 69 IU/L
BUN [3]: 18.8 mg/dL
CRE [3]: 0.2 mg/dL
DBIL [3]: 0.014 mg/dL
GLC [3]: 191.4 mg/dL
IP [3]: 6.8 mg/dL
K [3]: 4.1 meq/L
LDH [3]: 69.6 IU/L
Na [3]: 142.8 meq/L
PL [3]: 148.6 mg/dL
RALB [3]: 2.7 g/dL
TBIL [3]: 0.026 mg/dL
TC [3]: 71.4 mg/dL
TG [3]: 153.8 mg/dL
TP [3]: 6 g/dL
gamma-GTP [3]: 1 IU/L
ALP [4]: 1369.6 IU/L
ALT [4]: 43.6 IU/L
AST [4]: 67.2 IU/L
CRE [4]: 0.2 mg/dL
DBIL [4]: 0.022 mg/dL
GLC [4]: 185 mg/dL
IP [4]: 6.1 mg/dL
K [4]: 4.1 meq/L
LDH [4]: 81.4 IU/L
Na [4]: 143.6 meq/L
PL [4]: 140.6 mg/dL
RALB [4]: 2.8 g/dL
TBIL [4]: 0.034 mg/dL
TC [4]: 66 mg/dL
TG [4]: 166.4 mg/dL
TP [4]: 6.2 g/dL
gamma-GTP [4]: 1.4 IU/L
TERMINAL_BW [5]: 208.5 g
APTT [5]: 18.1 s
Bas [5]: 0%
Eos [5]: 1.2%
Fbg [5]: 285 mg/dL
Hb [5]: 13.6 g/dL
Ht [5]: 39.2%
Lym [5]: 78%
MCH [5]: 21.3 pg
MCHC [5]: 34.7%
MCV [5]: 61.5 fL
Mono [5]: 3.2%
Neu [5]: 17.2%
Plat [5]: 113.2 x10_4/uL
RBC [5]: 637.4 x10_4/ul
Ret [5]: 6.3%
WBC [5]: 77.5 x10_2/uL
KIDNEY_L [5]: 0.9 g
KIDNEY_R [5]: 0.9 g
KIDNEY_TOTAL [5]: 1.8 g
ALP [5]: 1907.8 IU/L
ALT [5]: 51 IU/L
AST [5]: 75.4 IU/L
BUN [5]: 16.6 mg/dL
CRE [5]: 0.2 mg/dL
DBIL [5]: 0.014 mg/dL
GLC [5]: 196.2 mg/dL
IP [5]: 8.4 mg/dL
K [5]: 4.2 meq/L
LDH [5]: 86 IU/L
Na [5]: 142.6 meq/L
PL [5]: 145.2 mg/dL
RALB [5]: 2.7 g/dL
TBIL [5]: 0.038 mg/dL
TC [5]: 85.4 mg/dL
TG [5]: 58.2 mg/dL
TP [5]: 5.7 g/dL
gamma-GTP [5]: 1.2 IU/L
TERMINAL_BW [6]: 235 g
TERMINAL_BW [7]: 276.3 g
TERMINAL_BW [8]: 344.8 g
APTT [6]: 16.4 s
Bas [6]: 0%
Eos [6]: 1.2%
Fbg [6]: 311.4 mg/dL
Hb [6]: 14 g/dL
Ht [6]: 40.1%
Lym [6]: 75.6%
MCH [6]: 21.1 pg
MCHC [6]: 34.9%
MCV [6]: 60.4 fL
Mono [6]: 2.8%
Neu [6]: 20.2%
Plat [6]: 106.3 x10_4/uL
RBC [6]: 665.6 x10_4/ul
Ret [6]: 5.1%
WBC [6]: 94.7 x10_2/uL
APTT [7]: 17.9 s
Bas [7]: 0%
Eos [7]: 1%
Fbg [7]: 284.2 mg/dL
Hb [7]: 14.7 g/dL
Ht [7]: 42.7%
Lym [7]: 77.6%
MCH [7]: 20.2 pg
MCHC [7]: 34.6%
MCV [7]: 58.4 fL
Mono [7]: 3.2%
Neu [7]: 17.6%
Plat [7]: 101.4 x10_4/uL
RBC [7]: 731 x10_4/ul
Ret [7]: 3.8%
WBC [7]: 106 x10_2/uL
APTT [8]: 20.2 s
Bas [8]: 0%
Eos [8]: 1.2%
Fbg [8]: 290.6 mg/dL
Hb [8]: 16.2 g/dL
Ht [8]: 45.8%
Lym [8]: 78.8%
MCH [8]: 19.9 pg
MCHC [8]: 35.4%
MCV [8]: 56.2 fL
Mono [8]: 1.8%
Neu [8]: 17.8%
Plat [8]: 100.9 x10_4/uL
RBC [8]: 815.6 x10_4/ul
Ret [8]: 2.3%
WBC [8]: 90.5 x10_2/uL
KIDNEY_L [6]: 1 g
KIDNEY_R [6]: 1 g
KIDNEY_TOTAL [6]: 2 g
KIDNEY_L [7]: 1.1 g
KIDNEY_R [7]: 1.1 g
KIDNEY_TOTAL [7]: 2.2 g
KIDNEY_L [8]: 1.3 g
KIDNEY_R [8]: 1.3 g
KIDNEY_TOTAL [8]: 2.6 g
ALP [6]: 1566.6 IU/L
ALT [6]: 44.8 IU/L
AST [6]: 72.4 IU/L
BUN [6]: 17.4 mg/dL
CRE [6]: 0.2 mg/dL
DBIL [6]: 0.018 mg/dL
GLC [6]: 193 mg/dL
IP [6]: 7.9 mg/dL
K [6]: 4.1 meq/L
LDH [6]: 88.8 IU/L
Na [6]: 142 meq/L
PL [6]: 145 mg/dL
RALB [6]: 2.8 g/dL
TBIL [6]: 0.036 mg/dL
TC [6]: 77 mg/dL
TG [6]: 116.8 mg/dL
TP [6]: 6 g/dL
gamma-GTP [6]: 1.8 IU/L
ALP [7]: 1470 IU/L
ALT [7]: 46.2 IU/L
AST [7]: 71.4 IU/L
BUN [7]: 17.8 mg/dL
CRE [7]: 0.2 mg/dL
DBIL [7]: 0.012 mg/dL
GLC [7]: 179.8 mg/dL
IP [7]: 8.1 mg/dL
K [7]: 4.3 meq/L
LDH [7]: 53.8 IU/L
Na [7]: 142.8 meq/L
PL [7]: 141.6 mg/dL
RALB [7]: 2.7 g/dL
TBIL [7]: 0.022 mg/dL
TC [7]: 76 mg/dL
TG [7]: 106.6 mg/dL
TP [7]: 6 g/dL
gamma-GTP [7]: 1.2 IU/L
ALP [8]: 1314.6 IU/L
ALT [8]: 46.8 IU/L
AST [8]: 68.6 IU/L
BUN [8]: 17.2 mg/dL
CRE [8]: 0.2 mg/dL
DBIL [8]: 0.018 mg/dL
GLC [8]: 181 mg/dL
IP [8]: 6.6 mg/dL
K [8]: 4.1 meq/L
LDH [8]: 83.4 IU/L
Na [8]: 144.2 meq/L
PL [8]: 139.6 mg/dL
RALB [8]: 3 g/dL
TBIL [8]: 0.028 mg/dL
TC [8]: 79.2 mg/dL
TG [8]: 74.6 mg/dL
TP [8]: 6.4 g/dL
gamma-GTP [8]: 1 IU/L
